The source of these data is paper PMC7100484 (Pharmaceutical Research, 2020).

For one data set, the system named is MCF7 Cells. The experiment in a line: cells. It counts as cell-based. To be noted: Homo sapiens, MCF7, read-out: IC50, inhibition of total fluorescent intensity/cell of Lysotracker Red.
The subject of a further data set is fibroblasts. To be noted: cited from earlier work.
The subject of the next data set is Influenza A/Jap/305. To be noted: mouse, in vivo; cited from earlier work.
Data set [1] deals with respiratory tract infections. To be noted: in vivo; cited from earlier work.
For a further data set, the system named is interferon. To be noted: in vivo, po; cited from earlier work.
Data set [2] concerns the target Human Viral RNA Sensor RIG-I (Homo sapiens, UniProt O95786). Put plainly: biochemical. It counts as binding.
The subject of a further data set is ZIKV. Put plainly: microbe, parasite or virus in culture. The data set is classed as cell-based. To be noted: Zika virus.
The subject of a further data set is Semliki Forest. To be noted: mouse, in vivo; cited from earlier work.
The next data set relates to cytokines and chemokines. To be noted: mouse, in vivo; cited from earlier work.
For data set [3] the following is noted: not told; cited from earlier work.
A further data set concerns Mengo virus. To be noted: mouse, in vivo; cited from earlier work.
The next data set deals with EMCV. To be noted: cited from earlier work.
The next data set concerns Influenza B. To be noted: mouse, in vivo; cited from earlier work.
A further data set has as its system macrophages. To be noted: macrophages from naive BALB/c mice; cited from earlier work.
A further data set concerns mitochondrial potential. To be noted: cited from earlier work.
A further data set concerns Herpes simplex virus 1. To be noted: 250 mg/kg oral doses for 7 days; cited from earlier work.
For data set [4] the following is noted: microsomes; cited from earlier work.
Data set [5] deals with Encephalomyocarditis virus (EMCV). To be noted: mouse, in vivo; cited from earlier work.
The next data set has as its system West Nile virus. To be noted: 10 mg/kg; cited from earlier work.

Human Viral RNA Sensor RIG-I, sequence (O95786 whole entry): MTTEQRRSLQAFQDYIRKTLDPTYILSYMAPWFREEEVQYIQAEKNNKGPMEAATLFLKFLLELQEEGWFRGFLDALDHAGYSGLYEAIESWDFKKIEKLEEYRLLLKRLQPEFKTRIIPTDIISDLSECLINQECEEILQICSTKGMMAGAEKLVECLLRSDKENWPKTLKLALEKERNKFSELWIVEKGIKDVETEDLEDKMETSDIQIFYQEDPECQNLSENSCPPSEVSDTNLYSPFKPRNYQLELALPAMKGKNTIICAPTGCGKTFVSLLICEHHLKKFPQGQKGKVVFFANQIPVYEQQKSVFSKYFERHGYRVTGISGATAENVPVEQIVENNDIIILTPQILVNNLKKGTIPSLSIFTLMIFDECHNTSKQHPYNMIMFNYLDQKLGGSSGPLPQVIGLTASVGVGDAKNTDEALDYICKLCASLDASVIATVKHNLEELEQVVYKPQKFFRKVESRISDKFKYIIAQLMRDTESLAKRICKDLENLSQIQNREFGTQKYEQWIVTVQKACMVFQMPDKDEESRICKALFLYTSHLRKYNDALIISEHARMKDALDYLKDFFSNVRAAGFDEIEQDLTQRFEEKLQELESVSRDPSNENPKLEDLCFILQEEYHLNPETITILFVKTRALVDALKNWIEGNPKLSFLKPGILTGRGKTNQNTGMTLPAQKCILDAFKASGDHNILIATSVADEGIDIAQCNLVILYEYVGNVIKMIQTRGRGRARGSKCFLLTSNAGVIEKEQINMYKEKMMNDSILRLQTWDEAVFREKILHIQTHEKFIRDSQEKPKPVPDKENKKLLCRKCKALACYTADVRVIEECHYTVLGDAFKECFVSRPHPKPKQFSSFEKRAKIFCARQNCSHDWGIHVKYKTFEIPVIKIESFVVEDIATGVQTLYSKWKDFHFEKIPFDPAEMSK

Broadly, the EC50 is the concentration giving half of the maximal effect. A higher EC50 goes with weaker potency. In the case of `CCN(CC)CCOc1ccc2c(c1)C(=O)c1cc(OCCN(CC)CC)ccc1-2` [Tilorone, 2,7-Bis[2-(diethylamino)ethoxy]-9H-fluoren-9-one], the IC50 with MCF7 Cells is ~4 µM. For the same compound, the ATP-dependent acidification entry in the data set on fibroblasts was “inhibited the ATP-dependent acidification”. Further, the “lysosomal pH” value with fibroblasts is “increase lysosomal pH”. The “secretion of precursor forms of lysosomal enzymes” value in the data set with fibroblasts is “enhanced the secretion of precursor forms of lysosomal enzymes”. Besides, the “storage of sulfated glycosaminoglycans” value with fibroblasts is given as “induce the storage of sulfated glycosaminoglycans”. Moreover, the survival in mice in the data set on Influenza A/Jap/305 was 30% survival in mice at 250 mg/kg single oral dose; with Semliki Forest it was 100% survival in mice at 250 mg/kg single oral dose; with Mengo virus it was 80% survival in mice at 250 mg/kg single oral dose; in the data set on Influenza B it was 50% survival in mice at 250 mg/kg single oral dose; in the data set with Herpes simplex virus 1, 45% survival in mice at 250 mg/kg oral doses for 7 days; in [5] it was 80% survival in mice at 250 mg/kg single oral dose. Also, in [1], the prophylactic efficacy was 72%. Further, in the data set on interferon, the interferon induction entry is recorded as “inducer of interferon”. For the same compound, the EC50 stood at 500 µM in data set [2] and 5.2 µM in the data set on ZIKV. In addition, in the data set with cytokines and chemokines, the “levels of IL-6, IL-10, IL-12 (p40), IL-12 (p70), IL-17, Eotaxin, MCP-1, MIP-1B and RANTES” value is reported as “significantly higher levels”. Moreover, the “permeability (in words)” value in data set [3] was “highly permeable”. Also, the “drop of virus titer” value with EMCV is 1 log drop of virus titer at 25 mg/ml in vitro. Further, the “in vivo secretion of IL-6, TNF-a and IL-12” value in the data set on macrophages is listed as “increase in vivo secretion”. Moreover, the mitochondrial potential entry in the data set with mitochondrial potential is given as “rapid increase”. Also, the “species-liver microsome stability relationship” value in data set [4] is “increased in the order of guinea pig, non-human primate, mouse, followed by human”. Besides, the lethality protection with West Nile virus is 46% lethality protection at 10 mg/kg.
